Assay results reported in patent publication US20260240805A1, “ENTACTOGEN-ASSISTED THERAPY FOR ALCOHOL USE DISORDER AND ADDICTION-RELATED CONDITIONS AND COMORBIDITIES” (Solvonis Therapeutics Ireland Holdings Limited, priority 2021, published 2026).
Entries after “also recorded” stand apart in the source; their conditions may differ. Read-outs that look alike come from different tables or passages of the source.

Legend:
alcohol relapse = details: only in conjunction with psychosocial interventions; cited from earlier work
[1] = cited from earlier work
patients with AUD [2] = experiment: Drinking behavior (TLFB, units of alcohol per week), open-label MDMA-assisted therapy study in AUD post-detox (Example 8); type: in vivo, human
patients with AUD [3] = experiment: Physiological measures, SUDS and Drug Effects during MDMA sessions (Example 8); type: in vivo, human
Protocol: (§1) Dosing with MDMA occurred twice during the eight-week course on weeks 3 and 6.
Physiological and tolerability effects during MDMA sessions: In total, 26 drug-assisted psychotherapy sessions with MDMA were administered during the trial. Temperature, blood pressure and heart rate were measured at t=0, before taking MDMA, then half-hourly up to t=2 hours, then hourly thereafter for a minimum of 6-hours from the time of dosing (see FIG. 7).
Subjective Units of Distress (SUDS) and Participant report of Drug Effects were also measured, hourly, throughout the MDMA sessions (see FIG. 7). […] Participants gave their own subjective score (0-10) of whether they felt Drug Effects, and the therapists also recorded their own objective score of how “altered” the participant appeared. There was no significant difference between Observers' and Participants' Drug Effects scores. Drug Effects rose expectedly over the first two hours, with a notable further increase after the booster dose was given at t=2 hours, and a subsequent plateau then decline over the following six hours.

patients with AUD [4] = experiment: Profile Of Mood States (POMS), seven-day follow-up after MDMA sessions (Example 8); type: in vivo, human; details: daily for seven days after each MDMA session; 14 participants, 26 sessions
Text: (§2) Following the end of the eight-week therapeutic course, participants carried out additional follow-up questionnaires.
Seven-day follow-up after MDMA sessions: Considerable medical literature and the popular press report the anecdotal observation of ecstasy users experiencing an acute ‘come-down’ effect and a drop in mood in the days after using the drug recreationally. In order to measure this prospectively with clinical MDMA, we measured participants' mood states by daily Profile Of Mood States (POMS) measurements for seven days after each MDMA session (see FIG. 9). Positive scores represent depressed affect, zero represents no change in mood/affect and results below zero represent a positively felt mood.

patients with AUD [5] = experiment: PHQ-9, GAD-7, psychosocial functioning and quality of life measures (Example 8); type: in vivo, human
patients with AUD [6] = experiment: Suicidality, C-SSRS (Example 8); type: in vivo, human; details: during the course of the study
Text: as §2
Suicidality. Participants underwent the C-SSRS at screening, baseline, throughout the eight-week therapy course, in the week after each MDMA session and at the three-, six-, and nine-month follow-up visits.

patients with AUD [7] = experiment: Adverse events and tolerability (Example 8); type: in vivo, human
Protocol: This Example details an open-label, within-subjects, safety and tolerability feasibility study that was conducted in 14 patients aged 18-65 years old diagnosed with AUD who had recently undergone detoxification, and received MDMA-assisted therapy.
as §1

[8] = tested on: patients diagnosed with AUD; experiment: Depression and anxiety levels, FIG. 3 and FIG. 4; type: in vivo, human; details: patients remaining at 9 months; 100% at screening
Protocol: Prior to undergoing the disclosed methods, specifically during the screening session, 12 patients were assessed for levels of depression. […] Directly after going through the detoxification process (noted as “baseline” in FIG. 3), one patient had mild depression, two had moderate depression, zero had moderately severe depression, and two had severe depression (out of 11 patients remaining in the study). The patients were then reassessed at 3, 6, and 9 months post-baseline (i.e., after completing a detoxification course, and prior to beginning the MDMA-assisted therapy regimen), wherein it was discovered that, at 3 months, two had mild depression, one had moderate depression, three had moderately severe depression, and one had severe depression (out of 9 patients remaining in the study); at 6 months, no patients suffered from mild or moderate depression, two had moderate severe depression, and one had severe depression (out of 6 patients remaining in the study); finally, at 9 months, one patient had mild depression, one had moderate depression, and one had moderate severe depression, with none having severe depression.
Prior to undergoing the disclosed methods, specifically during the screening session, 12 patients were assessed for levels of anxiety. […]

[9] = cited from earlier work; remark: listed apart in the source
[10] = cited from earlier work; remark: listed apart in the source
[11] = doses of 100-125 mg; cited from earlier work
individuals with PTSD = details: cited from earlier work
CYP3A4 = CYP3A4 (Homo sapiens, UniProt P08684); details: single dose of MDMA of 1.5 mg/kg; cited from earlier work
CYP3A4, sequence (P08684 whole entry): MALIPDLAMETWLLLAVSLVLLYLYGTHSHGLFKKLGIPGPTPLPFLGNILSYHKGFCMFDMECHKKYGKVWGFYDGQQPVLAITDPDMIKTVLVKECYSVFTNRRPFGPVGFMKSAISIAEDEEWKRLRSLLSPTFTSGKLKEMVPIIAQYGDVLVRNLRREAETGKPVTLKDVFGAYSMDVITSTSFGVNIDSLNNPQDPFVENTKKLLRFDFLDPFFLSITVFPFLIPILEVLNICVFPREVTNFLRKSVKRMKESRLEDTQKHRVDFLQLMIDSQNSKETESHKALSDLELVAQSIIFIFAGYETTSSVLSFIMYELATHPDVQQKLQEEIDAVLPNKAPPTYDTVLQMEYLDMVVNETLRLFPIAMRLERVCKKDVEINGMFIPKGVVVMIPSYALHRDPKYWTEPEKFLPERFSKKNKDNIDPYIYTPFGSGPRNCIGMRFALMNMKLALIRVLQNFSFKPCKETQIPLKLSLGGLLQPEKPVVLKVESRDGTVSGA

[12] = cited from earlier work; remark: listed apart in the source
AUD = details: early uncontrolled studies; cited from earlier work
[13] = nine-month follow-up end point, of 14 participants

CC(=O)NCCCS(=O)(=O)O [acamprosate]
effect in relapse prevention (alcohol relapse): only minor positive effects in relapse prevention

CNC(C)Cc1ccc2c(c1)OCO2 (stereo not shown) [MDMA base]
solubility in water [1]: insoluble in water

O=C1CC[C@@]2(O)[C@H]3Cc4ccc(O)c5c4[C@@]2(CCN3CC2CC2)[C@H]1O5 [naltrexone]
effect in relapse prevention (alcohol relapse): only minor positive effects in relapse prevention

CNC(C)Cc1ccc2c(c1)OCO2 (stereo not shown) [MDMA, 1-(1,3-benzodioxol-5-yl)-N-methylpropan-2-amine]
decrease in alcohol consumption (patients with AUD [2]; 3 months post-detox vs pre-detox): 87.1%
decrease in alcohol consumption (patients with AUD [2]; 6 months post-detox vs pre-detox): 71%
units of alcohol per week (patients with AUD [2]; 6 months post-detox, 130.6 units per week pre-detox): 38.0 units of alcohol per week
decrease in alcohol consumption (patients with AUD [2]; 9 months post-detox vs pre-detox): 85.7%
average units of alcohol consumption per week (patients with AUD [2]; 9 months post-detox, 130.6 units per week pre-detox): 18.7 units/week
outcomes of other comorbid addictions (SUDs and BAs) (patients with AUD [2]; along the course of treatment): unexpectedly improved outcomes of other comorbid addictions
participants drinking fewer than 14 units of alcohol per week (patients with AUD [2]; [13]): 11 participants
participants relapsed to drinking more than 14 units of alcohol per week (patients with AUD [2]; [13]): three
participants totally abstinent from alcohol (patients with AUD [2]; [13]): nine
participants drinking in excess of 14 units of alcohol a week (patients with AUD [2]; over 9 months, 75% in the Outcomes Study without MDMA): 21%
temperature, blood pressure and heart rate during MDMA sessions (patients with AUD [3]; 26 sessions, except for one participant): remained within normal limits
Drug Effects scores (0-10) (patients with AUD [3]; by the end of the MDMA session day): all drug effects had returned to baseline
Subjective Units of Distress (SUDS) (patients with AUD [3]; hourly during the MDMA session): subsequently reduced during the course of the session
rise in blood pressure, temperature and heart rate over the course of the MDMA session (patients with AUD [3]; in vivo): mild, transient rise
neurocognitive impairments (patients with AUD [3]; weeks and months following participation): No participants reported any significant neurocognitive impairments
POMS mood disturbance (patients with AUD [4]): no evidence of any mood disturbance; also recorded: sustained a positive mood for seven days
PHQ-9 and GAD-7 scores (patients with AUD [5]; after screening and baseline time points): reduction in both anxiety and depression
psychosocial functioning (patients with AUD [5]; in vivo): improved across the cohort
quality of sleep, quality of life, compassion and empathy scales (patients with AUD [5]; in vivo): demonstrating benefits and improvements
C-SSRS suicidal ideation, intent or plans or self-harm behavior (patients with AUD [6]): No participants reported current suicidal ideation, intent or plans or self-harm behavior
tolerability of MDMA treatment (patients with AUD [7]; AUD post-detox, 187.5 mg each session): well-tolerated by all participants
desire to use illicit ecstasy/illicit MDMA (patients with AUD [7]; following clinical MDMA): No participants reported any desire to use illicit ecstasy/illicit MDMA
psychotic symptoms (patients with AUD [7]; in vivo): No psychotic symptoms were observed
patients found to have anxiety [8]: about 67%
patients found to have depression [8]: 50%
time of peak subjective effects ([9]; 100 mg MDMA, healthy volunteers, brain imaging studies): 100 min
duration of subjective effects ([9]; 100 mg MDMA, healthy volunteers): approximately 4.5 hours
time of peak subjective effects ([9]; Harris 2002): 90 to 120 min
time to return to baseline values ([9]; Harris 2002): 5 to 6 h
time to subjective effects ([9]; Harris 2002): approximately 45 mins
duration of effects ([9]; one dose): 4 to 5 h
onset of action ([9]; patients with PTSD, after the initial dose): 45 to 75 min
time of peak drug effects ([9]; patients with PTSD): 2 to 5 h
duration of effects ([9]; with the booster dose): 5 to 6 h
time to peak plasma concentration ([10]; humans, doses 100-125 mg): 2 to 3 h
elimination half-life ([10]; similar results for doses 50-125 mg): 7 to 9 h
increase in diastolic blood pressure [11]: 14.4-25 mmHg
increase in heart rate [11]: 26-30 bpm
effect size, self-reported improvement (individuals with PTSD; 12 subjects, Oehen 2013): 1.1
symptom relief, long-term follow-up (individuals with PTSD; chronic, treatment-resistant PTSD, Mithoefer 2010, 2013): statistically and clinically-significant gains in symptom relief with no subjects reporting harm
safety and tolerability (individuals with PTSD; phase 3, severe PTSD, even with comorbidities): safe and well-tolerated
efficacy vs therapy with inactive placebo (individuals with PTSD; phase 3, severe PTSD, Mitchell 2021): highly efficacious
CYP3A4 activity (CYP3A4): decrease in CYP3A4 activity
serious adverse reaction ([12]; 125 mg MDMA, third of three MDMA-assisted sessions, one individual): increased frequency of ventricular extrasystoles (PVCs)
commonly reported effects ([12]; Phase 1 studies in healthy volunteers): elevation in blood pressure and heart rate, increased anxiety or dysphoria, and dilated pupils

CCN(CC)C(=O)[C@@H]1C=C2c3cccc4[nH]cc(c34)C[C@H]2N(C)C1 [LSD]
abstinence rates (AUD): 30-50%
